The values that follow are results of earlier work, collected in US11213608B2, “Compositions including gelatin nanoparticles and methods of use thereof” (Wake Forest University Health Sciences, priority 2018, dated 2022).

The structures appear in SMILES notation.

In this series the test system is HepG2 cells.

With `Cc1c(C)c2c(c(C)c1O)CCC(C)(COc1ccc(CC3SC(=O)NC3=O)cc1)O2` (stereo not shown) [TRO, troglitazone], the “concentration above which toxic effects are commonly reported” value is recorded as “above 100 μM”.
